Data on 32 compounds can be found in patent US6399614B1, “1-(N-phenylaminoalkyl)piperazine derivatives substituted at position 2 of the phenyl ring” (Recordati S.A. Chemical and Pharmaceutical Company, priority 1997, dated 2002).

One may read the Ki as the dissociation constant of the complex between target and ligand, obtained from inhibition or displacement.

The assay addresses T1, human 5-HT1A serotonergic receptor (Homo sapiens, UniProt P08908).
T1 construct: expressed in transfected cells; host or cells: HeLa
T1 sequence (P08908 1-422): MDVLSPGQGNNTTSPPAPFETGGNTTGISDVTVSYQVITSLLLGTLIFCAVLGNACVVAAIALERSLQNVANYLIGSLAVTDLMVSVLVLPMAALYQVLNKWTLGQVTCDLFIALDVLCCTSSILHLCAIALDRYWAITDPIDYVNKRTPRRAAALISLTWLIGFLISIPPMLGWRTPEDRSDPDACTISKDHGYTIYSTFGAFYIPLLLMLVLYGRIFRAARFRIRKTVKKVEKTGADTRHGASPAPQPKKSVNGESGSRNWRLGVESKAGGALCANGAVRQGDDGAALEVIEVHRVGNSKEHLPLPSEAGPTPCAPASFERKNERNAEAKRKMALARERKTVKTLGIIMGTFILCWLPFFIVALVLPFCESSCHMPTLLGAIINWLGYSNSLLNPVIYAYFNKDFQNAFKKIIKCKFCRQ
Put plainly: Radioreceptor binding, recombinant human 5-HT1A receptors ([3H]8-OH-DPAT, HeLa membranes). Conditions: recombinant human receptor, [3H]8-OH-DPAT; Ki from IC50 by Cheng & Prusoff; read-out: Binding affinity for the 5-HT1A receptor, Ki. How it is done:
Genomic clone G-21 coding for the human 5-HT1A serotonergic receptor is stably transfected in a human cell line (HeLa). HeLa cells were grown as monolayers in Dulbecco's modified Eagle's medium (DMEM), supplemented with 10% fetal calf serum and gentamicin ([…]), 5% CO2 at 37° C. Cells were detached from the growth flask at 95% confluence by a cell scraper and were lysed in ice-cold 5 mM Tris and 5 mM EDTA buffer (pH 7.4). Homogenates were centrifuged at 40000×g×20 min and pellets were resuspended in a small volume of ice-cold 5 mM Tris and 5 mM EDTA buffer (pH 7.4) and immediately frozen and stored at −70° C. until use. On the day of experiment, cell membranes were resuspended in binding buffer: 50 mM Tris HCl (pH 7.4), 2.5 mM MgCl2, 10 μM pargiline (Fargin et al., Nature 335, 358-360, 1988). Membranes were incubated in a final volume of 1 ml for 30 min at 30° C. with 0.2-1 nM [3H]8-OH-DPAT, in absence or presence of competing drugs; non-specific binding was determined in the presence of 10 μM 5-HT. The incubation was stopped by addition of ice-cold Tris-HCl buffer and rapid filtration through 0.2% polyethyleneimine pretreated Whatman GF/B or Schleicher & Schuell GF52 filters.
The inhibition of specific binding of the radioligands by the tested drugs was analyzed to estimate the IC50 value by using the non-linear curve-fitting program Allfit (De Lean et al., Am. J. Physiol. 235, E97-E102, 1978). The IC50 value was converted to an affinity constant (Ki) by the equation of Cheng & Prusoff (Cheng, Y. C.; Prusoff, W. H. Biochem. Pharmacol. 22, 3099-3108, 1973).

`CCNC(=O)c1ccccc1N(CCN1CCN(c2ccccc2OC)CC1)C(=O)C1CCCCC1` [Example 25, 1-[N-(2-ethylaminocarbonylphenyl)-N-cyclohexylcarbonyl-2-aminoethyl]-4-(2-methoxyphenyl)piperazine]: the inhibition constant Ki came to 8.91 nM.

Consider `COc1cc([N+](=O)[O-])ccc1N1CCN(CCN(C(=O)C2CCCCC2)c2ccccc2OCC(F)(F)F)CC1` [Example 65], for which the inhibitory constant (Ki) was found to be 18.6 nM.

Consider `COc1cc(NC(=O)C(F)(F)F)ccc1N1CCN(CCN(C(=O)C2CCCCC2)c2ccccc2OC(F)(F)F)CC1` [Example 58, 1-[N-cyclohexylcarbonyl-N-(2-trifluoromethoxyphenyl)-2-aminoethyl]-4-(4-trifluoroacetylamino-2-methoxyphenyl)piperazine], for which the inhibition constant (Ki) is 2.44 nM. Next, `COc1ccccc1N1CCN(CCNc2ccccc2OC(F)(F)F)CC1` [Example 3, 1-[N-(2-trifluoromethoxyphenyl)-2-aminoethyl]-4-(2-methoxyphenyl)piperazine]: 10.3 nM. In the case of `COc1ccccc1[N+]1([O-])CCN(CCN(C(=O)C2CCCCC2)c2ccccc2[N+](=O)[O-])CC1` [Example 30, 1-[N-(2-nitrophenyl)-N-cyclohexylcarbonyl-2-aminoethyl]-4-(2-methoxyphenyl)piperazine N^4-oxide], the Ki amounted to 7.96 nM. Consider `COc1cc([N+](=O)[O-])ccc1N1CCN(CCN(C(=O)C2CCCCC2)c2ccccc2OC(F)(F)F)CC1` [Example 55, 1-[N-cyclohexylcarbonyl-N-(2-trifluoromethoxyphenyl)-2-aminoethyl]-^4-(2-methoxy-4-nitrophenyl)piperazine], for which the Ki was determined as 10.8 nM. Turning to `O=[N+]([O-])c1ccccc1NCCN1CCN(Cc2cc(Cl)ccc2Cl)CC1` [Example 14, 1-[N-(2-nitrophenyl)-2-aminoethyl)-4-(2,5-dichlorobenzyl)piperazine], the inhibition constant (Ki) stood at 10.3 nM. `FC(F)(F)Oc1ccccc1NCCN1CCN(c2ccccc2OC(F)(F)F)CC1` [Example 71, 1-[N-(2-trifluoromethoxyphenyl)-2-aminoethyl]-4-(2-trifluoromethoxyphenyl)piperazine]: the Ki is 15.5 nM.

In the case of `O=C(C1CCCCC1)N(CCN1CCN(c2ccccc2OC(F)(F)F)CC1)c1ccccc1OC(F)(F)F` [Example 72, 1-[N-cyclohexylcarbonyl-N-(2-trifluoromethoxyphenyl)-2-aminoethyl]-4-(2-trifluoromethoxyphenyl)piperazine], the Ki is 1.22 nM.

With `O=[N+]([O-])c1ccccc1NCCN1CCN(c2cccc3[nH]ccc23)CC1` [Example 12, 1-[N-(2-nitrophenyl)-2-aminoethyl]-4-(4-indolyl)piperazine], the Ki worked out at 4.77 nM. For the compound `COc1ccccc1N1CCN(CCN(C(=O)C2CCCCC2)c2ccccc2OC(F)(F)F)CC1` [Example 4, 1-[N-(2-trifluoromethoxyphenyl)-N-cyclohexylcarbonyl-2-aminoethyl]-4-(2-methoxyphenyl)piperazine], the Ki stood at 0.64 nM. As for `COc1cc(NC(C)=O)ccc1N1CCN(CCN(C(=O)C2CCCCC2)c2ccccc2OCC(F)(F)F)CC1` [Example 67], the inhibitory constant (Ki) was determined as 4.76 nM. In the case of `COc1ccccc1N1CCN(C(C)CN(C(=O)C2CCCCC2)c2ccccc2[N+](=O)[O-])CC1` (centres unmarked) [Example 45, 1-[N-(2-nitrophenyl)-N-cyclohexylcarbonyl-1-amino-2-propyl]-4-(2methoxyphenyl)piperazine], the Ki stood at 2.21 nM. On to `COc1ccccc1N1CCN(CCNc2ccccc2C(F)(F)F)CC1` [Example 22, 1-[N-(2-trifluoromethylphenyl)-2-aminoethyl]-4-(2-methoxyphenyl)piperazine], for which the Ki was 18.2 nM.

For `COc1ccccc1N1CCN(CCN(C(=O)C2CCCCC2)c2ccccc2NS(C)(=O)=O)CC1` [Example 46, 1-[N-cyclohexylcarbonyl-N-(2-methanesulphonylaminophenyl)-2-aminoethyl]-4-(2-methoxyphenyl)piperazine], the Ki was found to be 6.05 nM. In the case of `COc1ccccc1N1CCN(CCN(C(=O)c2cccs2)c2ccccc2[N+](=O)[O-])CC1` [Example 34, 1-[N-(2-nitrophenyl)-N-(2-thiophenecarbonyl)-2-aminoethyl]-4-(2-methoxyphenyl)piperazine], the Ki worked out at 16.3 nM. Consider `COc1ccccc1N1CCN(CCN(C(=O)C2CCCCC2)c2ccccc2NC(C)=O)CC1` [Example 28, 1-[N-(2-acetylaminophenyl)-N-cyclohexylcarbonyl-2-aminoethyl]-4-(2-methoxyphenyl)piperazine], for which the Ki was determined as 18.8 nM.

For `FC(F)(F)Oc1ccccc1NCCN1CCN(c2cccc3[nH]ccc23)CC1` [Example 50, 1-[N-(2-trifluoromethoxyphenyl)-2-aminoethyl]-4-(4-indolyl)piperazine], the inhibitory constant (Ki) turned out to be 1.16 nM. Turning to `COc1ccccc1N1CCN(CC(C)Nc2ccccc2[N+](=O)[O-])CC1` (centres unmarked) [Example 52, 1-[N-(2-nitrophenyl)-2-aminopropyl]-4-(2-methoxyphenyl)piperazine], the Ki came out at 34 nM. In the case of `COc1ccc(Br)c(CN2CCN(CCNc3ccccc3OC(F)(F)F)CC2)c1` [Example 74, 1-[N-(2-trifluoromethoxyphenyl)-2-aminoethyl]-4-(2-bromo-5-methoxybenzyl)piperazine], the Ki amounted to 2.02 nM. Take `COc1cc(NC(C)=O)ccc1N1CCN(CCN(C(=O)C2CCCCC2)c2ccccc2[N+](=O)[O-])CC1` [Example 70]: the Ki was 28.1 nM. Take `COc1ccccc1N1CCN(CCNc2ccccc2I)CC1` [Example 7, 1-[N-(2-iodophenyl)-2-aminoethyl]-4-(2-methoxyphenyl)piperazine]: the inhibitory constant (Ki) is 3.82 nM.

As for `COc1ccccc1N1CCN(CCN(C(=O)c2cnccn2)c2ccccc2[N+](=O)[O-])CC1` [Example 38, 1-[N-(2-nitrophenyl)-N-(2-pyrazinylcarbonyl)-2-aminoethyl]-4-(2-methoxyphenyl)piperazine], the Ki turned out to be 1.02 nM.

Turning to `COc1ccccc1N1CCN(CCNc2ccccc2Oc2ccccc2)CC1` [Example 5, 1-[N-(2-phenoxyphenyl)-2-aminoethyl]-4-(2-methoxyphenyl)piperazine.3HCl], the Ki worked out at 14.8 nM. On to `CS(=O)(=O)Nc1ccccc1N(CCN1CCN(c2cccc3[nH]ccc23)CC1)C(=O)C1CCCCC1` [Example 88, 1-[N-cyclohexylcarbonyl-N-(2-methanesulphonylaminophenyl)-2-aminoethyl]-4-(4-indolyl)piperazine], for which the inhibition constant (Ki) was determined as 1.03 nM. Next, `COc1ccccc1N1CCN(CCN(C(=O)c2ccsc2)c2ccccc2[N+](=O)[O-])CC1` [Example 35, 1-[N-(2-nitrophenyl)-N-(3-thiophenecarbonyl)-2-aminoethyl]-4-(2-methoxyphenyl)piperazine]: 8 nM. Regarding `O=C(C1CCCCC1)N(CCN1CCN(c2cccc3c2ccn3C(=O)C2CCCCC2)CC1)c1ccccc1OC(F)(F)F` [Example 84, 1-[N-cyclohexylcarbonyl-N-(2-trifluoromethoxyphenyl)-2-aminoethyl]-4-(1-cyclohexylcarbonyl-4-indolyl)piperazine], the Ki was 23.2 nM. As to `FC(F)(F)COc1ccccc1NCCN1CCN(c2cccc3[nH]ccc23)CC1` [Example 68], the Ki turned out to be 9.32 nM. As for `COc1ccc(Br)c(CN2CCN(CCN(C(=O)C3CCCCC3)c3ccccc3C#N)CC2)c1` [Example 83, 1-[N-(2-cyanophenyl)-N-cyclohexylcarbonyl-2-aminoethyl]-4-(2-bromo-5-methoxybenzyl)piperazine], the Ki came out at 1.31 nM. In the case of `O=C(C1CCCCC1)N(CCN1CCN(Cc2cc(Cl)ccc2Cl)CC1)c1ccccc1[N+](=O)[O-]` [Example 15, 1-[N-(2-nitrophenyl)-N-cyclohexylcarbonyl-2-aminoethyl]-4-(2,5-dichlorobenzyl)piperazine], the inhibitory constant (Ki) was determined as 6.2 nM. With `COc1ccccc1N1CCN(CCN(C(=O)C2CCCCC2)c2ccccc2C(=O)OCc2ccccc2)CC1` [Example 49, 1-[N-cyclohexylcarbonyl-N-(2-benzyloxycarbonylphenyl)-2-aminoethyl]-4-(2-methoxyphenyl)piperazine], the Ki worked out at 0.17 nM.

Consider `COc1ccccc1N1CCN(CCN(C(=O)C2CCCCC2)c2ccccc2C(F)(F)F)CC1` [Example 26, 1-[N-(2-trifluoromethylphenyl)-N-cyclohexylcarbonyl-2-aminoethyl]-4-(2-methoxyphenyl)piperazine.], for which the Ki was found to be 2.69 nM.
